Data reported in patent publication US6946464B2, “Methods of treating and preventing a convulsive state” (Sepracor Inc., priority 1999, dated 2005).

Tests used:
[1] = target: central benzodiazepine receptor; assay: Binding at the central benzodiazepine receptor (competition of specific binding); conditions: rat cerebral cortex; for IC50: 10 concentrations in duplicate, nonlinear regression; for Ki: inhibition constant calculated from competition curves
Experimental: (§1) The binding of N-desmethylzopiclone was determined at the central benzodiazepine receptor and at the non-selective muscarinic receptor, both of which were isolated from rat cerebral cortex. Compounds were tested initially at 10 μM in duplicate, and if at least a 50% inhibition of specific binding was observed, they were tested further at 10 different concentrations in duplicate in order to obtain full competition curves. IC50 values (concentration required to inhibit 50% specific binding) were determined by nonlinear regression analysis of the curves, and inhibition constants (Ki) were also calculated.

[2] = tested on: non-selective muscarinic receptor; assay: Binding at the non-selective muscarinic receptor; conditions: rat cerebral cortex; tested at 10 μM in duplicate
Experimental: as §1

[3] = healthy humans; cited from earlier work
[4] = as reported by Goa and Heel, Drugs 32:48-65 (1986); cited from earlier work

Compound | IC50 [1] [nM] | Ki [1] [nM] | Muscarinic (% Inhibition) [2] [%] | share of an oral dose of racemic zopiclone accounted for by the metabolite [3] [%] | reported pharmacological activity [4]
O=C(OC1c2nccnc2C(=O)N1c1ccc(Cl)cn1)N1CCNCC1 (racemic) [(±)-N-desmethylzopiclone] | 1100 | 924 | 10 | – | –
C[N+]1([O-])CCN(C(=O)O[C@H]2c3nccnc3C(=O)N2c2ccc(Cl)cn2)CC1 [N-oxidezopiclone, reference compound] | – | – | – | 11 | less active than zopiclone
O=C(O[C@@H]1c2nccnc2C(=O)N1c1ccc(Cl)cn1)N1CCNCC1 [(−)-N-desmethylzopiclone] | 7090 | 5960 | 24 | – | –
O=C(O[C@H]1c2nccnc2C(=O)N1c1ccc(Cl)cn1)N1CCNCC1 [(+)-N-desmethylzopiclone] | 545 | 458 | 19 | – | –
O=C(O[C@H]1c2nccnc2C(=O)N1c1ccc(Cl)cn1)N1CCNCC1 [N-desmethylzopiclone] | – | – | – | 15 | inactive
CN1C(=O)CN=C(c2ccccc2)c2cc(Cl)ccc21 [Diazepam, reference compound] | 12 | 10 | – | – | –
